The source of these data is patent US20250320206A1, “STAT6 DEGRADERS” (Gilead Sciences, Inc., priority 2024, published 2025).

For the first assay, the target named is T1, STAT6 (Homo sapiens, UniProt P42226).
T1 construct: These cells express endogenous STAT6; host or cells: HeLa LgBiT clone 4.14
T1 sequence (P42226 1-847): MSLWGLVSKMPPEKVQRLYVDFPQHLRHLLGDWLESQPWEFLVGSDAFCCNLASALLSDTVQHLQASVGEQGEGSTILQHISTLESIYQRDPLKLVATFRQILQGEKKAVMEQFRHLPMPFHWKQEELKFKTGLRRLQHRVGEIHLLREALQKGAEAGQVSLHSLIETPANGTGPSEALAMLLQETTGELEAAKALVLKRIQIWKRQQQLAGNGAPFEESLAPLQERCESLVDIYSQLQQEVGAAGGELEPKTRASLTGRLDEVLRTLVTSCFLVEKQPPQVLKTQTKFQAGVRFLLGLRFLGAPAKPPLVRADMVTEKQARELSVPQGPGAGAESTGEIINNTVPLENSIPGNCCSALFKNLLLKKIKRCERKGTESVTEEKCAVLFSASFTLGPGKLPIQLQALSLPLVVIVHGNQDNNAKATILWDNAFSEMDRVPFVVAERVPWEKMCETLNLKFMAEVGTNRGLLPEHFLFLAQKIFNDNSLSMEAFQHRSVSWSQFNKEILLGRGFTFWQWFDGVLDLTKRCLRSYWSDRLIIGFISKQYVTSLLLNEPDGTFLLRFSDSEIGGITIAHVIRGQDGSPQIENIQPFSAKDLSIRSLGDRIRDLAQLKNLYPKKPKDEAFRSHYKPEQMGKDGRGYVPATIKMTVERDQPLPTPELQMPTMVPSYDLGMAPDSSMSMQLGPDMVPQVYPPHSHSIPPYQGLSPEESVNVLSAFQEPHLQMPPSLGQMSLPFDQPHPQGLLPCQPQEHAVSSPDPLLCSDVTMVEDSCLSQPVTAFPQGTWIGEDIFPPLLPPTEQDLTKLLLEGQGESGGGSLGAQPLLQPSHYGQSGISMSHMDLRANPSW
The assay is described as follows: Stat6 Degrader Assay (HiBiT based, HeLa LgBiT clone 4.14). The format is cell-based. Conditions: HeLa LgBiT clone 4.14 HiBiT-STAT6, 4-24 h incubation; read-out: STAT6 degradation Emax. The protocol: This was a HiBit based assay. A HeLa cell line stably transfected with a small protein, LgBit (Large Bit) was obtained from Promega. These cells express endogenous STAT6. A small 11 amino acid gene sequence (HiBiT) was inserted in the STAT6 gene using CRISPR technology. Once STAT6 protein is expressed in the cells, the HiBiT sequence will bind the LgBit in the cells resulting in a functional NanoBiT protein, giving a luminescent tag to STAT6, see FIG. 2.
Single cell clones were prepared and the clone 4.14 was selected for the assay based on that clone showing high luminescence, high STAT6 phosphorylation upon stimulation with IL-4, and inhibition of luminescence when cells were treated with STAT6 siRNA.
HeLa LgBiT clone 4.14 cells were suspended in DMEM with 10% FCS, 1% Pen/Strep, Na-pyrovate and Hygromycin B, at a concentration of 1.25*105 cells pr mL. 5000 cells were added pr well of a 384 well plate and 20 nL of compound was added by Echo® liquid handler. NN6394A (terfenadine, a toxic compound) was added to control wells at 50 μM concentration to establish the assay window. In these wells the cells are dead which equals 100% degradation of STAT6.
After 4-24 h of incubation at 37° C. under 5% CO2/95% air, 5 μL substrate (Nano-GLO®) was added to the wells and the plates were centrifuged and incubated for 0.5 h.
The luminescence in the wells as a measure of non-degraded STAT6 was measured in a plate reader (BMG Pherastar FSX).
The dose-response curves for Examples 3u208, 3u246, 3u118, 3u119, 3u120, and 3u74 are shown in FIG. 1 (where percent degradation is plotted vs. test compound concentration in M on a log-scale).
For orientation: The HiBiT peptide binds its large partner to form an active luciferase.
Broadly, the Emax is the greatest response seen or fitted, relative to the assay's reference. As for `CNc1cc(=O)n(-c2ccnc3c2cc([C@H](C)N2CC=C(c4c(C)cc(C(=O)N5CCC(CN6CCN(Cc7ccc8c(c7)n(C7CC7)c(=O)n8C7CCC(=O)NC7=O)C[C@@H]6C)CC5)cc4F)CC2)n3C)cc1OC` (stereo partly drawn) [Example 3u134, 3-(3-cyclopropyl-5-(((S)-4-((1-(3-fluoro-4-(1-((S)-1-(4-(5-methoxy-4-(methylamino)-2-oxopyridin-1 (2H)-yl)-1-methyl-1H-pyrrolo[2,3-b]pyridin-2-yl)ethyl)-1,2,3,6-tetrahydropyridin-4-yl)-5-methylbenzoyl)piperidin-4-yl)methyl)-3-methylpiperazin-1-yl)methyl)-2-oxo-2,3-dihydro-1H-benzo[d]imidazol-1-yl)piperidine-2,6-dione], the maximal effect (Emax) was in the range of 20 to 30%.
Consider `CNc1nc(=O)n(-c2ccnc3c2cc(CN2CCC(c4c(F)cc(C(=O)N5CCC(CN6CCN(c7cc8c(cc7F)n(C7CCC(=O)NC7=O)c(=O)n8C)CC6)CC5)cc4F)CC2)n3C)cc1F` (stereo not shown) [Example 3u261, 3-(5-(4-((1-(3,5-difluoro-4-(1-((4-(5-fluoro-4-(methylamino)-2-oxopyrimidin-1 (2H)-yl)-1-methyl-1H-pyrrolo[2,3-b]pyridin-2-yl)methyl)piperidin-4-yl)benzoyl)piperidin-4-yl)methyl)piperazin-1-yl)-6-fluoro-3-methyl-2-oxo-2,3-dihydro-1H-benzo[d]imidazol-1-yl)piperidine-2,6-dione], for which the maximal effect (Emax) was < 20%.
Same read-out and setting: the same measure for `CNc1cc(=O)n(-c2ccnc3c2cc(CN2CCC(c4c(F)cc(C(=O)N5CCC(OCC#Cc6ccc7c(c6)n(C)c(=O)n7C6CCC(=O)NC6=O)CC5)cc4F)CC2)n3C)cc1F` (stereo not shown) [Example 3u262, 3-(5-(3-((1-(3,5-difluoro-4-(1-((4-(5-fluoro-4-(methylamino)-2-oxopyridin-1 (2H)-yl)-1-methyl-1H-pyrrolo[2,3-b]pyridin-2-yl)methyl)piperidin-4-yl)benzoyl)piperidin-4-yl)oxy)prop-1-yn-1-yl)-3-methyl-2-oxo-2,3-dihydro-1H-benzo[d]imidazol-1-yl)piperidine-2,6-dione]: 30 to 40%.

Staying with this assay, now noted: HeLa LgBiT clone 4.14 HiBiT-STAT6, 4-24 h incubation; values given for compounds with >80% Emax; geometric mean; read-out: STAT6 degradation DC50.
In general, DC50 refers to the midpoint of the concentration-degradation curve. On to `Cc1cc(C(=O)N2CCC(CN3CCN(Cc4cc5c(cc4F)n(C4CCC(=O)NC4=O)c(=O)n5C4CC4)C[C@@H]3C)CC2)cc(F)c1C1=CCN([C@@H](C)c2cc3c(-n4ccc5c(c4=O)CCN5)ccnc3n2C)CC1` (stereo partly drawn) [Example 3u131, 3-(3-cyclopropyl-6-fluoro-5-(((S)-4-((1-(3-fluoro-5-methyl-4-(1-((S)-1-(1-methyl-4-(4-oxo-1,2,3,4-tetrahydro-5H-pyrrolo[3,2-c]pyridin-5-yl)-1H-pyrrolo[2,3-b]pyridin-2-yl)ethyl)-1,2,3,6-tetrahydropyridin-4-yl)benzoyl)piperidin-4-yl)methyl)-3-methylpiperazin-1-yl)methyl)-2-oxo-2,3-dihydro-1H-benzo[d]imidazol-1-yl)piperidine-2,6-dione], for which the half-maximal degradation concentration (DC50) was 0.8 nM.
Turning to `Cc1cc(C(=O)N2CCC(CN3CCN(Cc4ccc5c(c4)n(C4CC4)c(=O)n5C4CCC(=O)NC4=O)C[C@@H]3C)CC2)cc(F)c1C1=CCN([C@@H](C)c2cc3c(-n4ccc5c(c4=O)CCN5)ccnc3n2C)CC1` (stereo partly drawn) [Example 3u143, 3-(3-cyclopropyl-5-(((S)-4-((1-(3-fluoro-5-methyl-4-(1-((S)-1-(1-methyl-4-(4-oxo-1,2,3,4-tetrahydro-5H-pyrrolo[3,2-c]pyridin-5-yl)-1H-pyrrolo[2,3-b]pyridin-2-yl)ethyl)-1,2,3,6-tetrahydropyridin-4-yl)benzoyl)piperidin-4-yl)methyl)-3-methylpiperazin-1-yl)methyl)-2-oxo-2,3-dihydro-1H-benzo[d]imidazol-1-yl)piperidine-2,6-dione], the DC50 worked out at 0.7 nM.
As to `CNc1ccn(-c2ccnc3c2cc(CN2CCC(c4c(C)cc(C(=O)N5CCC(CN6CCN(Cc7ccc8c(c7)n(C)c(=O)n8C7CCC(=O)NC7=O)CC6)CC5)cc4F)CC2)n3C)c(=O)c1` (stereo not shown) [Example 3u158, 3-(5-((4-((1-(3-fluoro-5-methyl-4-(1-((1-methyl-4-(4-(methylamino)-2-oxopyridin-1 (2H)-yl)-1H-pyrrolo[2,3-b]pyridin-2-yl)methyl)piperidin-4-yl)benzoyl)piperidin-4-yl)methyl)-piperazin-1-yl)methyl)-3-methyl-2-oxo-2,3-dihydro-1H-benzo[d]imidazol-1-yl)piperidine-2,6-dione], the half-maximal degradation concentration (DC50) was determined as 24.1 nM.
As for `CNc1ccn(-c2ccnc3c2cc(CN2CC=C(c4c(C)cc(C(=O)N5CCC(CN6CCN(Cc7ccc8c(c7)n(C)c(=O)n8C7CCC(=O)NC7=O)CC6)CC5)cc4F)CC2)n3C)c(=O)c1` (stereo not shown) [Example 3u163, 3-(5-((4-((1-(3-fluoro-5-methyl-4-(1-((1-methyl-4-(4-(methylamino)-2-oxopyridin-1 (2H)-yl)-1H-pyrrolo[2,3-b]pyridin-2-yl)methyl)-1,2,3,6-tetrahydropyridin-4-yl)benzoyl)piperidin-4-yl)methyl)piperazin-1-yl)methyl)-3-methyl-2-oxo-2,3-dihydro-1H-benzo[d]imidazol-1-yl)piperidine-2,6-dione], the half-maximal degradation concentration (DC50) turned out to be 4.4 nM.
Take `CNc1ccn(-c2ccnc3c2cc([C@H](C)N2CC=C(c4c(C)cc(C(=O)N(C)C5CCC(C6CCN(Cc7ccc8c(c7)n(C)c(=O)n8C7CCC(=O)NC7=O)CC6)CC5)cc4F)CC2)n3C)c(=O)c1` (stereo partly drawn) [Example 3u252, N-(4-(1-((1-(2,6-dioxopiperidin-3-yl)-3-methyl-2-oxo-2,3-dihydro-1H-benzo[d]-imidazol-5-yl)methyl)piperidin-4-yl)cyclohexyl)-3-fluoro-N,5-dimethyl-4-(1-((S)-1-(1-methyl-4-(4-(methylamino)-2-oxopyridin-1 (2H)-yl)-1H-pyrrolo[2,3-b]pyridin-2-yl)ethyl)-1,2,3,6-tetrahydropyridin-4-yl)benzamide]: the half-maximal degradation concentration (DC50) amounted to 0.4 nM.
As for `CNc1ccn(-c2ccnc3c2cc([C@H](C)N2CC=C(c4c(C)cc(C(=O)N5CCC(CN6CCN(Cc7ccc8c(c7)C(F)(F)C(=O)N8C7CCC(=O)NC7=O)CC6)CC5)cc4F)CC2)n3C)c(=O)c1` (stereo partly drawn) [Example 3u255, 3-(3,3-difluoro-5-((4-((1-(3-fluoro-5-methyl-4-(1-((S)-1-(1-methyl-4-(4-(methylamino)-2-oxopyridin-1 (2H)-yl)-1H-pyrrolo[2,3-b]pyridin-2-yl)ethyl)-1,2,3,6-tetrahydropyridin-4-yl)benzoyl)piperidin-4-yl)methyl)piperazin-1-yl)methyl)-2-oxoindolin-1-yl)piperidine-2,6-dione], the DC50 came out at 13.7 nM.
For the compound `CNc1ccn(-c2ccnc3c2cc([C@H](C)N2CC=C(c4c(C)cc(C(=O)N5CCn6nc(CC7CCN(c8ccc9c(c8)n(C8CC8)c(=O)n9C8CCC(=O)NC8=O)CC7)cc6C5)cc4F)CC2)n3C)c(=O)c1` (stereo partly drawn) [Example 3u259, 3-(3-cyclopropyl-5-(4-((5-(3-fluoro-5-methyl-4-(1-((S)-1-(1-methyl-4-(4-(methylamino)-2-oxopyridin-1 (2H)-yl)-1H-pyrrolo[2,3-b]pyridin-2-yl)ethyl)-1,2,3,6-tetrahydropyridin-4-yl)benzoyl)-4,5,6,7-tetrahydropyrazolo[1,5-a]pyrazin-2-yl)methyl)piperidin-1-yl)-2-oxo-2,3-dihydro-1H-benzo[d]imidazol-1-yl)piperidine-2,6-dione], the DC50 is 0.5 nM.
